Measured values published in patent US9499517B2, “Substituted prolines / piperidines as orexin receptor antagonists” (Eolas Therapeutics, Inc., priority 2012, dated 2016).
Like-named read-outs stand apart in the source and are kept apart here.

Assays:
[1] = target: T1, OX1 (Homo sapiens, UniProt O43613); experiment: Orexin receptor cell-based functional assay: [Ca2+]i by FLIPR in CHO-OX1 cells, antagonism of EC90 of OXA
T1 construct: expressed in transfected cells; host or cells: CHO (CHO-OX1, kept under G418 or Blasticidin selection)
T1 sequence (O43613 1-425): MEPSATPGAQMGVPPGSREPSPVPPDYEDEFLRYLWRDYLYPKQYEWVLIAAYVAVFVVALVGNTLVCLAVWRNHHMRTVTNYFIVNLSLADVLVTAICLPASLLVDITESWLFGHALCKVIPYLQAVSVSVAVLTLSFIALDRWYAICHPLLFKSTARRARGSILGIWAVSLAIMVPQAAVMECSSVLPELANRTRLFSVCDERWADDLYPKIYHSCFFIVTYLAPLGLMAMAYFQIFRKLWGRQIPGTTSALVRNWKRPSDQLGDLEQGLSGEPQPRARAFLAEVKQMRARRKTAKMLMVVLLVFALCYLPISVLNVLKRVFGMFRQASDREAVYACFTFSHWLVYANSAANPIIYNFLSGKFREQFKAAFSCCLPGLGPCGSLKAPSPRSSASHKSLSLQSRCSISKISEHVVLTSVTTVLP
Experimental: Orexin Receptor Cell-based Functional Assay.
Measurement of [Ca^2+]i using a FLIPR: CHO—OX1 or CHO—OX2 cells are seeded into black-walled clear-base 384-well plates (Costar) at a density of 20,000 cells per well in F12-K medium supplemented with 10% FBS and selection antibiotic (500 ug/ml G418 or 15 ug/ml Blasticidin) and cultured overnight. The cells are incubated with equal volume of calcium 4 loading buffer (Molecular Devices, Inc.) containing 2.5 mM probenecid at 37° C. for 30 min, followed by putative OX1 or OX2 receptor antagonists (dose-range 0.1 nM-10 μM) for another 30 min.

[2] = test system: mice; experiment: Nicotine self-administration assay (IV nicotine) in WT, Hcrt-R1 KO and virally-rescued mice; type: in vivo
Description: Nicotine Self-Administration Assay
Development of Animal Subjects.
To generate Hcrt-R1^+/+ and […] mice, breeding pairs of male and female Hcrt-R1^+/− mice that were backcrossed >10 generations on a C57BL/6 background were obtained from Jackson Laboratory (Bar Harbor, Me.). For all experiments, mice weighing 25-35 g were housed in groups of 2-3 per cage, in a temperature-controlled vivarium under a reversed 12-h light/dark cycle (lights off at 8 am). Food and water were provided ad libitum until behavioral training commenced. During training, mice were food-restricted to maintain ˜85-90% of their free-feeding body weight. Behavioral testing occurred during the dark portion of the light/dark cycle between the hours of 9 am-1 pm, during the early portion of the dark phase of the cycle. All procedures were conducted in strict adherence with the National Institutes of Health Guide for the Care and Use of Laboratory Animals and were approved by the Institutional Animal Care and Use Committee of The Scripps Research Institute.
Mice were anesthetized by inhalation of 1-3% isoflurane in oxygen and silastic catheters were inserted into the jugular veins. […] During the TO period, responding on the lever was recorded but without scheduled consequence. […]

[3] = test system: mice; experiment: Food self-administration (lever press for food pellets) in WT and Hcrt-R1 KO mice; type: in vivo; details: systemic administration 30 min prior to the session
[4] = target: T2, CYP3A4 (Homo sapiens, UniProt P08684); experiment: Cytochrome P450 inhibition assay: midazolam hydroxylation to 1'-hydroxymidazolam in human liver microsomes, with or without 30 min pre-incubation; type: in vitro ADME; details: human, human liver microsomes, probe midazolam, 10 μM test compound; for inhibition at 5 min, 10 µM: read-out: CYP3A4 % inh (10 μM, 5 min); for inhibition at 30 min, 10 µM: 30 min (time-dependent inhibition), read-out: CYP3A4 % inh (10 μM, 30 min)
T2 construct: pre-incubated with human liver microsomes and NADPH for 30 minutes; from tissue; host or cells: human liver microsomes
T2 sequence (P08684 whole entry): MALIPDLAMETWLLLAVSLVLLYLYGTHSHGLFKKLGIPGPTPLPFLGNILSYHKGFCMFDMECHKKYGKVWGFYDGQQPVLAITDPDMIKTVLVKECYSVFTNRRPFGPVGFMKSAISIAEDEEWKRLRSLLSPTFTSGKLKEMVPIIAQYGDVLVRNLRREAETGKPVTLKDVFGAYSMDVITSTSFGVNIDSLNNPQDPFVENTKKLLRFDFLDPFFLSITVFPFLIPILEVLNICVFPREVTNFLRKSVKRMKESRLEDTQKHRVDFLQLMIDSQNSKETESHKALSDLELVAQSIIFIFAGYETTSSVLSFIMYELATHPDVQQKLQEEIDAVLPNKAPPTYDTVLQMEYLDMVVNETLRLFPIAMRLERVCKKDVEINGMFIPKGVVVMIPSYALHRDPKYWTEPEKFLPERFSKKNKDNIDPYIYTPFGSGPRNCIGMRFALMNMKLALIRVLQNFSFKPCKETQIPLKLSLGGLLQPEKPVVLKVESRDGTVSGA
Experimental: (§1) Cytochrome P450 Inhibition Assay.
(§2) Compounds were tested for the potential to induce drug-drug interactions by inhibition of the cytochrome P450 3A4 isoform. The assay evaluated the metabolism of a specific marker substrate (CYP3A4, midazolam hydroxylation to 1′-hydroxymidazolam) in the presence or absence of 10 μM test compound. […] A specific inhibitor for the isoform was included in each run to validate the system. An appropriate positive control inhibitor was used. Mechanism-based inhibition was investigated where warranted using a classical method. […] The percent inhibition of the pre-incubated and non-pre-incubated samples were compared as a preliminary evaluation of time-dependent inhibition.

[5] = target: T3, cytochrome P450 3A4 isoform (Homo sapiens, UniProt P08684); experiment: as above; type: in vitro ADME; details: relative to Examples 112 and 114 (Table 4)
T3 construct: pre-incubated with human liver microsomes and NADPH for 30 minutes; from tissue; host or cells: human liver microsomes
T3 sequence (P08684 whole entry, canonical isoform): as the sequence (P08684 whole entry) above
Experimental: as §1, §2

[6] = Table 2A, bioactivity with respect to OX1, CHO-OX1 cells, FLIPR, read-out: OX1

**Q.** For `Cc1ccc(-n2nccn2)c(C(=O)N2CCC[C@@H](C)[C@H]2CNc2ncc(C#N)cc2F)n1` [Example A193, 5-Fluoro-6-((((2S,3R)-3-methyl-1-(6-methyl-3-(2H-1,2,3-triazol-2-yl)picolinoyl)piperidin-2-yl)methyl)amino)nicotinonitrile], which IC50 [1, 6] is on record?
**A.** 100 nM

**Q.** Which results are given for `CC1(C)OC[C@H](NC(=O)Nc2ccc(Br)cc2Br)[C@H](c2ccccc2)O1` [JNJ 10397049]?
**A.** nicotine self-administration (SA) ([2]; KO mice): marginal decrease in nicotine SA; nicotine self-administration (SA) ([2]; doses 0, 5 and 10 mg/kg, WT mice): no effect on nicotine SA; food self-administration (SA) [3]: no effect on SA of food pellets

**Q.** How did the inhibition at 5 min, 10 µM [4] turn out when `Cc1ccc(-n2nccn2)c(C(=O)N2CCC[C@@H](C)[C@H]2CNc2ccc(C(F)(F)F)cn2)c1` (racemic) [Example 114, rac-((2S,3R)-3-methyl-2-(((5-(trifluoromethyl)pyridin-2-yl)amino)methyl)piperidin-1-yl)(5-methyl-2-(2H-1,2,3-triazol-2-yl)phenyl)methanone] was run?
**A.** 78%

**Q.** And the inhibition at 30 min, 10 µM [4]?
**A.** 93%

**Q.** Which inhibition at 30 min, 10 µM [4] does the source give for `C[C@@H]1CCCN(C(=O)c2cc(F)ccc2-n2nccn2)[C@@H]1CNc1ncc(C(F)(F)F)cn1` [Example A207, (5-Fluoro-2-(2H-1,2,3-triazol-2-yl)phenyl)((2S,3R)-3-methyl-2-(((5-(trifluoromethyl)pyrimidin-2-yl)amino)methyl)piperidin-1-yl)methanone] here?
**A.** 52%

**Q.** What about the “inhibition of CYP3A4” value [5] of the same molecule?
**A.** reduced inhibition of CYP3A4

**Q.** Which IC50 ([1]; Table 5, read-out: OX1 IC50) does the source give for `Cc1nc(C(=O)N2CCCC(C)(C)C2CNc2ncc(C(F)(F)F)cn2)c(-c2ccc(F)cc2)s1` (centres unmarked) [SR-12364, reference compound] here?
**A.** 137 nM

**Q.** How did the “food self-administration (SA)” value [3] turn out when `Cc1nc(C(=O)N2CCC[C@@H](C)[C@H]2CNc2ccc(C(F)(F)F)cn2)c(-c2ccc(F)cc2)s1` (racemic) [Example 11, rac-(5-(4-fluorophenyl)-2-methylthiazol-4-yl)((2S,3R)-3-methyl-2-(((5-(trifluoromethyl)pyridin-2-yl)amino)methyl)piperidin-1-yl)methanone] was run?
**A.** no effect on food SA

**Q.** Which inhibition at 30 min, 10 µM [4] does the source give for `C[C@@H]1CCCN(C(=O)c2c(F)cccc2-n2nccn2)[C@@H]1CNc1ncc(C(F)(F)F)cn1` [Compound A259, (2-fluoro-6-(2H-1,2,3-triazol-2-yl)phenyl)((2S,3R)-3-methyl-2-(((5-(trifluoromethyl)pyrimidin-2-yl)amino)methyl)piperidin-1-yl)methanone] here?
**A.** 41%

**Q.** With `Cc1nc(C(=O)N2CCCCC2CNc2ncc(C(F)(F)F)cn2)c(-c2ccc(F)cc2)s1` (centres unmarked) [SR-12376, reference compound] as the molecule, how does the IC50 ([1]; Table 5, read-out: OX1 IC50) read?
**A.** 13 nM

**Q.** `C[C@@H]1CCCN(C(=O)c2cc(F)ccc2-c2ncccn2)[C@@H]1CNc1ncc(C(F)(F)F)cn1` [Compound A227, (5-Fluoro-2-(pyrimidin-2-yl)phenyl)((2S,3R)-3-methyl-2-(((5-(trifluoromethyl)pyrimidin-2-yl)amino)methyl)piperidin-1-yl)methanone] was tested. Which inhibition at 30 min, 10 µM [4] did it give?
**A.** 58%

**Q.** For `C[C@@H]1CCCN(C(=O)c2cc(Cl)ccc2-c2ncccn2)[C@@H]1CNc1ncc(C(F)(F)F)cn1` [Example A201, (5-Chloro-2-(pyrimidin-2-yl)phenyl)((2S,3R)-3-methyl-2-(((5-(trifluoromethyl)pyrimidin-2-yl)amino)methyl)piperidin-1-yl)methanone], which inhibition at 30 min, 10 µM [4] is on record?
**A.** 59%

**Q.** What about the “inhibition of CYP3A4” value [5] of the same molecule?
**A.** reduced inhibition of CYP3A4

**Q.** For `CC(=O)NC1CCC(CNC(=O)c2cccc3cccnc23)N(C(=O)c2ccccc2-c2ccccc2)C1` (racemic) [Example 43, rac-N-((5-acetamido-1-(biphenylcarbonyl)piperidin-2-yl)methyl)quinoline-8-carboxamide], which IC50 ([1]; Table 2, IC50 bioactivity, CHO-OX1 cells, FLIPR, read-out: OX1) is on record?
**A.** 2000 nM

**Q.** What does the source list for `Cc1ccc(-c2ncccn2)c(C(=O)N2CCC[C@@H](C)[C@H]2CNc2ccc(C(F)(F)F)cn2)c1` (racemic) [Example 112, rac-((2S,3R)-3-methyl-2-(((5-(trifluoromethyl)pyridin-2-yl)amino)methyl)piperidin-1-yl)(5-methyl-2-(pyrimidin-2-yl)phenyl)methanone]?
**A.** IC50 ([1]; Table 4, read-out: OX1 IC50): 42 nM; inhibition at 5 min, 10 µM [4]: 72%; inhibition at 30 min, 10 µM [4]: 94%

**Q.** With `Cc1ccc(-n2nccn2)c(C(=O)N2CCC[C@@H](C)[C@H]2CNc2nnc(C(F)(F)F)s2)c1` [Example A102, ((2S,3R)-3-Methyl-2-(((5-(trifluoromethyl)-1,3,4-thiadiazol-2-yl)amino)methyl)piperidin-1-yl)(5-methyl-2-(2H-1,2,3-triazol-2-yl)phenyl)methanone] as the molecule, how does the IC50 [1, 6] read?
**A.** 61 nM
